“And” between values parts separate entries of the source, which are not always exact repeats. Equal entries are not always repeated.
Legend:
Staphylococcus aureus = experiment: MIC, test tube serial dilution, Staphylococcus aureus; type: cell-based; settings: 24 hours, 37°C
Escherichia coli = experiment: MIC, test tube serial dilution, Escherichia coli; type: cell-based; settings: 24 hours, 37°C
Klebsiella-Aerobacter = experiment: MIC, test tube serial dilution, Klebsiella-Aerobacter; type: cell-based; settings: 24 hours, 37°C
Proteus morganii = experiment: MIC, test tube serial dilution, Proteus morganii; type: cell-based; settings: strain 932; 24 hours, 37°C
in vivo = settings: mouse, iv
Streptococcus faecalis = experiment: MIC, test tube serial dilution, Streptococcus faecalis; type: cell-based; settings: ATCC 9790; 24 hours, 37°C
Pseudomonas aeruginosa = experiment: MIC, test tube serial dilution, Pseudomonas aeruginosa; type: cell-based; settings: 24 hours, 37°C
Proteus vulgaris = experiment: MIC, test tube serial dilution, Proteus vulgaris; type: cell-based; settings: unit assumed

CNC(=O)N1CCN(C(=O)N[C@@H](C(=O)N[C@@H]2C(=O)N3[C@@H]2SC(C)(C)[C@@H]3C(=O)O)c2ccccc2)C1=O [Example 2, Sodium D(-)-α-[(3-methylaminocarbonyl-imidazolidin-2-on-1-yl)-carbonylamino]-benzylpenicillin]
MIC (Staphylococcus aureus; strain 133): < 0.8 U/ml | MIC (Staphylococcus aureus; strain 1756 (BRL 1 756)): 200 U/ml | MIC (Escherichia coli; strain 183/58): 1.6 U/ml | MIC (Escherichia coli; strain A 261): 100 U/ml | MIC (Escherichia coli; strain C 165): 1.6 U/ml | MIC (Klebsiella-Aerobacter; strain 63): 12.5 U/ml and 12 U/ml | MIC (Klebsiella-Aerobacter; strain K 10): 50 U/ml | MIC (Proteus morganii): 1.6 U/ml | LD50 (in vivo): 3000 mg/kg | MIC (Streptococcus faecalis): 50 U/ml | MIC (Pseudomonas aeruginosa; strain Bonn): 50 U/ml | MIC (Pseudomonas aeruginosa; strain Walter): 25 U/ml | MIC (Proteus vulgaris): 6 µg/mL
